# Assays:
# E. coli ATCC 25922 = test: In vivo efficacy, murine septicemia model; settings: 30 mg kg^−1 IP once (1 h post-infection); 10 CD-1 mice; positive control
# Experimental: CD-1 mice (7 weeks old, 27–28 g female) were used (Charles River, France). These animals were housed for a week of acclimation period before the experiment in a protected area in the ‘Centre de Zootechnie de l’Université de Bourgogne’ (Biosafety level 2 facility) and fed ad libitum according to the current recommendations by the European Institute of Health. Housing took place in rooms where a 12-h/12 h light/dark cycle is applied, the temperature ranges from 18 to 21°C and the relative humidity from 45 to 65%. The animal facility is authorized by the French authorities (Agreement N° C 21 464 04 EA). […]
# For animal experiments, Bac7PS was synthesized at Genscript as acetate salt and with a purity of 92%. […] First, the maximum tolerated dose (MTD) for the peptide was determined by testing different peptide doses in 8 groups with 5 animals per group. The peptide solution was administered once by intraperitoneal (IP) injection with a volume of between 94 and 240 μl (depending on the weight of the animal and the dosage) and the animals were monitored for 2 h following the injection, then 6 to 8 h later, and then once or twice a day, depending on the clinical status, up to 5 days post-injection. […] As endpoint, the wellbeing and survival rate, on a twice daily based evaluation for up to 3 days, was monitored.
# bacteria = settings: cited from earlier work
# Description: One of the most intensively researched proline-rich AMPs is bactenecin-7 (Bac7). It is a 60 amino acid long linear peptide that was first isolated from bovine neutrophils. […] Measuring the antimicrobial activity of heavily mutated variants was valuable to determine the sequence-activity relationship of Bac7_1-23 because (i) the activity of specific amino acid res ... || Bac7PS excelled over Bac7_1-23 in terms of antimicrobial activity against clinical isolates including MDR bacteria and a decreased dependency on the SbmA transporter (Fig. 4a; Table 2). […] We mainly attribute the activity gain to the increased ability to penetrate membranes, which was accompanied by a slight increase in membrane damage at higher concentrations compared to Bac7_1-23 (Fig. 4b; Additional file 1 ...
# E. coli TOP10 = test: Deep mutational scanning, site-saturation Bac7_1-23 library, intracellular self-screening with NGS; type: cell-based; settings: induction vs 4.5 h, n = 3, more negative = more antimicrobial
# Experimental: A focused strategy was pursued to generate diversity at positions 5, 18, 19, and 20 in the Bac7_1-23 peptide. […] Degeneration was introduced by using the QuikChange technique, amplifying the pBAD plasmid containing the Bac7_1-23 gene using a mixture of 20 oligonucleotides (Additional file 1: Table S1) at a final concentration of 0.3 μM and Phusion® High-Fidelity PCR Master Mix in HF buffer. The amplification was performed using 20 cycles of 98°C for 10 s, 60°C for 15 s, and 72°C for 10 s. The PCR product was treated with the enzyme Dpn1 to remove the template plasmid and subsequently purified. The purified product was used to transform 20 μl of CloneCatcher™ Gold DH5G Electrocompetent E. coli (Genlantis, Burlington, USA) cells using electroporation.
# To assess the antimicrobial activity of multiple peptides in parallel when expressed intracellularly in E. coli TOP10, previously prepared aliquots containing E. coli plasmid libraries created by either random mutagenesis or site-saturation mutagenesis were used. For both approaches, three aliquots containing approximately 500 million cells each of E. coli TOP10 harboring peptide-encoding DNA sequences on the pBAD plasmid were thawed and added to three 1-l baffled shake flasks containing 100 ml of LB medium + 100 μg ml^−1 carbenicillin. The cultures were grown for roughly 7 h at 37°C.
molecule,measurement,setting,value
O=C(O)c1cn(C2CC2)c2cc(N3CCNCC3)c(F)cc2c1=O [ciprofloxacin],survival,E. coli ATCC 25922,survival of all mice
"Bac7_1-15: Bac7_1-15 (RRIRPRPPRLPRPRP; Bactenecin-7; UniProt P19661 131-145, looked up, fragment)",antimicrobial activity,bacteria,loss of antimicrobial activity
RRIRDRPPRLPRPRPRPIKDPRP [site-saturation library peptide ID 5521],lfcShrink4 (shrunken log2-fold change of abundance of peptide-encoding DNA),E. coli TOP10,-4
